The target in the experiment is T1, Glucocorticoid receptor (Homo sapiens) (UniProt P04150).
T1 sequence (whole entry): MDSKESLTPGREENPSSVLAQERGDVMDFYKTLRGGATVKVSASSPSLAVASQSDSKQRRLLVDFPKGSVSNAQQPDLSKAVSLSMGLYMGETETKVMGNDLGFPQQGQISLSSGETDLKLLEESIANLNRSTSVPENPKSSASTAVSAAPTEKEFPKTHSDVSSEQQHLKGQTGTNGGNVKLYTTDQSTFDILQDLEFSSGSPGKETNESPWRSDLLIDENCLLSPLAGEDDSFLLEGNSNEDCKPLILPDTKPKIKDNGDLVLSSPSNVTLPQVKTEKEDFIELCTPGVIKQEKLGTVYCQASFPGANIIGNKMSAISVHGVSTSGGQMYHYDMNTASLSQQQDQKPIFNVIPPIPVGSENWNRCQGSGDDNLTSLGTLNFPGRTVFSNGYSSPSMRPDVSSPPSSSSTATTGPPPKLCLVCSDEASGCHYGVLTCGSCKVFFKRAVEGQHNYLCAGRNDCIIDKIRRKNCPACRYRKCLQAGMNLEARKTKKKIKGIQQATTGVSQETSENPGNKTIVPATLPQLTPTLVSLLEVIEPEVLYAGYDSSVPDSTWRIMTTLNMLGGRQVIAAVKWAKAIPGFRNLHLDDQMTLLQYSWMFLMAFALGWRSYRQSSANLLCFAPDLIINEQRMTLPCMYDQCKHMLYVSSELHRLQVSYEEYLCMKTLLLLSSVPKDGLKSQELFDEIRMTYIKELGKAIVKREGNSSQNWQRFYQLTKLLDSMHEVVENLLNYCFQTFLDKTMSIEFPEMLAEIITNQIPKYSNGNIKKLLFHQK
Conditions: HeLa.
Description: Relative transcriptional activation in HeLa cells expressing glucocorticoid receptor
For the molecule `C[C@@H]1CC2C3CCC4=Cc5c(cnn5-c5ccc(Cl)nc5)CC4(C)C3C(O)CC2(C)[C@@]1(O)C(=O)CO` (some centres not stated), the RSA came to 24.

Molecule `C[C@@H]1CC2C3CCC4=Cc5c(cnn5-c5cccnc5F)CC4(C)C3C(O)CC2(C)[C@@]1(O)C(=O)CO` (some centres not stated) registered an RSA of 121.

`C[C@@H]1CC2C3CCC4=Cc5c(cnn5-c5cccnc5)CC4(C)C3C(O)CC2(C)[C@@]1(O)C(=O)CO` (some centres not stated) came in with an RSA of 255.

Turning to `C[C@@H]1CC2C3CCC4=Cc5c(cnn5-c5cnccc5Cl)CC4(C)C3C(O)CC2(C)[C@@]1(O)C(=O)CO` (some centres not stated), the RSA came out at 33.

As to `C[C@@H]1CC2C3CCC4=Cc5c(cnn5-c5ccncn5)CC4(C)C3C(O)CC2(C)[C@@]1(O)C(=O)CO` (some centres not stated), the RSA was 0.

Turning to `C[C@@H]1CC2C3CCC4=Cc5c(cnn5-c5ncccn5)CC4(C)C3C(O)CC2(C)[C@@]1(O)C(=O)CO` (some centres not stated), the RSA was determined as 0.

With `C[C@@H]1CC2C3CCC4=Cc5c(cnn5-c5ccc(F)cc5)CC4(C)C3C(O)CC2(C)C1(O)C(=O)CO` (some centres not stated), the RSA was found to be 483.

Molecule `C[C@@H]1CC2C3CCC4=Cc5c(cnn5-c5cccnc5Cl)CC4(C)C3C(O)CC2(C)[C@@]1(O)C(=O)CO` (some centres not stated) had an RSA of 97.

In the case of `C[C@@H]1CC2C3CCC4=Cc5c(cnn5-c5ccccn5)CC4(C)C3C(O)CC2(C)[C@@]1(O)C(=O)CO` (some centres not stated), the RSA was 30.

On to `C[C@@H]1CC2C3CCC4=Cc5c(cnn5-c5ccc(F)nc5)CC4(C)C3C(O)CC2(C)[C@@]1(O)C(=O)CO` (some centres not stated), for which the RSA turned out to be 436.

`C[C@@H]1CC2C3CCC4=Cc5c(cnn5-c5ccncc5)CC4(C)C3C(O)CC2(C)[C@@]1(O)C(=O)CO` (some centres not stated) came in with an RSA of 135.

`C[C@@H]1C[C@H]2[C@@H]3CCC4=CC(=O)C=C[C@]4(C)[C@@]3(F)[C@@H](O)C[C@]2(C)[C@@]1(O)C(=O)CO` returned an RSA of 100.

Source of the values: ChEMBL document CHEMBL1135667, “Synthesis of halogen-substituted pyridyl and pyrimidyl derivatives of [3,2-c]pyrazolo corticosteroids: strategies for the development of glucocorticoid receptor mediated imaging agents” (J Med Chem, 2002).
